Test results reported in patent US4693884A, “Technetium-99m triphosphonates and tetraphosphonates for the scintigraphic visualization of res-containing organs and lymph vessels, and a process for their preparation” (Hoechst Aktiengesellschaft, priority 1982, dated 1987).

How the values were obtained:
[1] = Accumulation of phosphoric acid derivatives investigated as technetium-99m diagnostic agents (bone, liver, RES); details: in vivo
Text: It is possible to use phosphoric acid derivatives, particularly organic phosphonic acid derivatives, for bone scintigraphy. Many compounds have been investigated in the search for derivatives suitable as a technetium-99m diagnostic agent for bone.

[2] = Comparison of 99mTc TPB, 99mTc PTP and 99mTc phytate after intravenous injection to dogs; assay type: in vivo; details: intravenous, dogs
[3] = Example 6: distribution of activity over the organs in rats, PTP; assay type: in vivo, Sprague-Dawley rats; details: 30 min after injection; femoral vein; mean, n=6
Experimental: 3.5 g of 1,1,3,3-propanetetraphosphonic acid (PTP) are dissolved in 250 ml of double-distilled water, and the solution is adjusted to pH 6 with 1N NaOH. 210 mg of SnCl2.2H2 O, which are dissolved in 4.2 ml of 0.2N HCl, are added to this solution, and the pH is again adjusted to 6. The mixture is made up to 350 ml and individual 1 ml portions are prepared. (All the operations up to preparation of the individual portions are carried out under protective N2 gas.) The contents are frozen and freeze-dried. One unit contains 10 mg of PTP and 0.6 mg of SnCl2.2H2 O.
After storing for some weeks, the lyophilizate is dissolved in 10 ml of physiologic saline which contains 2 mCi of ^99m Tc-pertechnetate. After 30 min, Sprague-Dawley rats (n=6) weighing about 200 g each receive 0.1 ml of this solution injected into the femoral vein. The animals are sacrificed with ether 30 min after injection, and the distribution of the activity over the organs is determined. The mean figures below result (as percentage of the dose administered): […]

[4] = Example 7: elimination from the blood and renal excretion; assay type: in vivo, dog (beagle)
Experimental: (§1) A labeling unit prepared as in Example 6 is made ready for injection with 5 ml of physiologic saline containing 10 mCi of ^99m Tc-pertechnetate. 1 ml of this solution is injected into the ear vein of a dog (beagle) weighing 18 kg, and the change in activity with time over the abdominal cavity is followed using a gamma camera by the ROI technique. It emerges that the uptake of activity by the liver is complete after about 10 min. The lung and kidneys are not imaged.
The elimination from the blood and the renal excretion are also determined on the same animal. […] About 2.3% of the administered activity is excreted with the urine within the first 8 hours.

[5] = Example 7: change in activity over the abdominal cavity followed with gamma camera (ROI technique); assay type: in vivo, dog (beagle); details: ear vein
Experimental: as §1

[6] = Organ distribution of 99mTc-labeled substances in rats 30 minutes after injection as a function of the amount of substance administered; assay type: in vivo; details: for Blood/ml / Kidneys / Liver / Lung / Remainder of body / Spleen / Thyroid / tissue uptake at 0.5 h: 30 min after injection, n = 3; for tissue uptake at 0.5 h: rat, femur, iv, 0.05 mg
Experimental: Assuming that 2-20 mg of TPB, ETP, PTP or phytate are administered to humans, and assuming that the weight of human is 80 kg, this corresponds to an amount administered of 25-250 μg/kg of body weight. Calculating on the basis of the body weight of rats weighing 200 g, then administration of 5-50 μg of TPB, ETP, PTP or phytate per rat exactly reflects the relationships.
Organ distribution of ^99m Tc TPB, ^99m TC ETP and ^99m Tc
phytate in rats (n = 3) 30
minutes after injection as a function of the amount of substance
(all data as a percentage of the amount of activity administered)

[7] = second amount column (printed 50 μg)
[8] = third amount column (printed 50 μg)

accumulation in bone [1]: virtually not at all | excretion of activity with the urine ([2]; 30 min after injection): 0.05 % of the test dose | excretion of activity with the urine, compared with phytate [2]: markedly less | decrease in activity via the liver after accumulation in the liver is complete ([2]; compared with phytate): slower | Kidneys [3]: 0.067 percentage of the dose adminis | Liver [3]: 94.0 percentage of the dose adminis | Remainder of body [3]: 4.8 percentage of the dose adminis | Spleen [3]: 1.9 percentage of the dose adminis | Thyroid [3]: 0.034 percentage of the dose adminis | bladder + urine [3]: 0.023 percentage of the dose adminis | blood (1 ml) [3]: 0.083 percentage of the dose adminis | bone [3]: 0.7 percentage of the dose adminis | lungs [3]: 0.23 percentage of the dose adminis | clearance from the blood, half-life t1 ([4]; ear vein, first phase): 3.25 min | share of phase t1 in clearance from the blood ([4]; ear vein, first phase): 97% | clearance from the blood, half-life t2 ([4]; ear vein, second phase): 20.3 min | share of phase t2 in clearance from the blood ([4]; ear vein, second phase): 2.4% | clearance from the blood, half-life t3 ([4]; ear vein, third phase): 500 min | share of phase t3 in clearance from the blood ([4]; ear vein, third phase): 0.6% | administered activity excreted with the urine ([4]; within the first 8 hours): About 2.3 % of the administered activity | time at which uptake of activity by the liver is complete [5]: about 10 min | Blood/ml ([6]; (50 μg)): 0.055 percentage of the amount of ac | Blood/ml [6, 7]: 0.11 percentage of the amount of ac | Blood/ml [6, 8]: 0.086 percentage of the amount of ac | accumulation of activity in the kidneys, blood, femur and remainder of the body compared with phytate ([6]; all amounts of substance investigated): clearly lower than with phytate | tissue uptake at 0.5 h ([6]; (50 μg)): 0.052 %ID/g | tissue uptake at 0.5 h [6, 7]: 0.088 %ID/g | tissue uptake at 0.5 h [6, 8]: 0.089 %ID/g
Structure (SMILES): O=P(O)(O)C(CC(P(=O)(O)O)P(=O)(O)O)P(=O)(O)O [PTP, propane-1,1,3,3-tetraphosphonic acid]
accumulation in the liver [1]: very preferentially accumulated in the liver | Kidneys ([6]; (50 μg)): 0.16 percentage of the amount of activity administered | Liver ([6]; (50 μg)): 91.8 percentage of the amount of activity administered | Lung ([6]; (50 μg)): 0.30 percentage of the amount of activity administered | Remainder of body ([6]; (50 μg)): 9.3 percentage of the amount of activity administered | Spleen ([6]; (50 μg)): 1.31 percentage of the amount of activity administered | Thyroid ([6]; (50 μg)): 0.05 percentage of the amount of activity administered | Kidneys [6, 7]: 0.37 percentage of the amount of activity administered | Liver [6, 7]: 84.2 percentage of the amount of activity administered | Lung [6, 7]: 0.45 percentage of the amount of activity administered | Remainder of body [6, 7]: 16.0 percentage of the amount of activity administered | Spleen [6, 7]: 1.23 percentage of the amount of activity administered | Thyroid [6, 7]: 0.04 percentage of the amount of activity administered | Kidneys [6, 8]: 0.38 percentage of the amount of activity administered | Liver [6, 8]: 82.7 percentage of the amount of activity administered | Lung [6, 8]: 0.43 percentage of the amount of activity administered | Remainder of body [6, 8]: 18.4 percentage of the amount of activity administered | Spleen [6, 8]: 1.10 percentage of the amount of activity administered | Thyroid [6, 8]: 0.05 percentage of the amount of activity administered | suitability as diagnostic agent for visualization of RES-containing organs compared with 99mTc phytate ([6]; deduction from the animal experiments): unambiguously superior
